From PubChem BioAssay (NCI)
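Where inhibition never reached the appropriate level, the endpoint shown equals the highest concentration tested. Otherwise, values were interpolated linearly from a five-concentration, 48-hour dose response in 96-well plates. At the TGI there is no net growth.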 Where a SMILES comes first, the peptide text is derived from it. The star is where a group is joined. Boc = CC(C)(C)OC(=O)*; OBn = c1ccc(CO*)cc1

Experiments:
Experiment in all cases: NCI tumour cell line growth inhibition, 48 h
MDA-MB-435 = system: MDA-MB-435
HL-60(TB) leukemia = system: HL-60(TB) leukemia
SK-MEL-2 melanoma = system: SK-MEL-2 melanoma
A549 NSCLC = system: A549 NSCLC
ACHN renal = system: ACHN renal
CCRF-CEM leukemia = system: CCRF-CEM leukemia
SF-268 CNS = system: SF-268 CNS
K-562 leukemia = system: K-562 leukemia
SNB-75 CNS = system: SNB-75 CNS
UACC-257 melanoma = system: UACC-257 melanoma
RXF 393 renal = system: RXF 393 renal
UO-31 renal = system: UO-31 renal
U251 CNS = system: U251 CNS
SF-539 CNS = system: SF-539 CNS
HCT-15 colon = system: HCT-15 colon
SK-MEL-28 melanoma = system: SK-MEL-28 melanoma
SK-OV-3 ovarian = system: SK-OV-3 ovarian
SR leukemia = system: SR leukemia
HT29 colon = system: HT29 colon

Row | Compound | TGI (MDA-MB-435) [µM] | TGI (HL-60(TB) leukemia) [µM] | TGI (SK-MEL-2 melanoma) [µM] | TGI (A549 NSCLC) [µM] | TGI (ACHN renal) [µM] | TGI (CCRF-CEM leukemia) [µM] | TGI (SF-268 CNS) [µM] | TGI (K-562 leukemia) [µM] | TGI (SNB-75 CNS) [µM] | TGI (UACC-257 melanoma) [µM] | TGI (RXF 393 renal) [µM] | TGI (UO-31 renal) [µM] | TGI (U251 CNS) [µM] | TGI (SF-539 CNS) [µM] | TGI (HCT-15 colon) [µM] | TGI (SK-MEL-28 melanoma) [µM] | TGI (SK-OV-3 ovarian) [µM] | TGI (SR leukemia) [µM] | TGI (HT29 colon) [µM]
1 | Cc1n[nH]c(=O)n1/N=C\CC/C=N\n1c(C)n[nH]c1=O | > 100 | > 100 | > 100 | > 100 | > 100 | > 100 | > 100 | > 100 | > 100 | > 100 | > 100 | > 100 | > 100 | > 100 | > 100 | > 100 | > 100 | > 100 | > 100
2 | CC(NC(=O)C(Cc1ccccc1)NC(=O)C(Cc1ccccc1)NC(=O)OC(C)(C)C)C(=O)OCc1ccccc1 (stereo not drawn) (Boc-Phe-Phe-Ala-OBn; configuration not given here) | > 100 | > 100 | > 100 | > 100 |  | > 100 | > 100 | > 100 | > 100 | > 100 | > 100 | > 100 | > 100 | > 100 |  |  | > 100 | > 100 | > 100
3 | c1ccc2cc(CNCCOCCOCCNCc3ccc4ccccc4c3)ccc2c1 | 3.81 | 4.07 | 3.65 | 3.46 | 3.26 | 4.46 | 4.43 | 2.79 | 4.12 | 2.96 | 3.52 |  | 4.07 | 3.69 | 3.46 | 4.35 | 8.62 | 5.45 | 2.76
4 | COC(=O)CC(=O)Nc1sccc1S(=O)(=O)c1ccccc1 | > 100 | > 100 | > 100 | > 100 | > 100 | > 100 | > 100 | > 100 | > 100 | > 100 | > 100 | > 100 | > 100 | > 100 | > 100 | > 100 | > 100 | > 100 | > 100
5 | COc1ccc(C(=O)/C=C/c2cccnc2)cc1OC | 30.1 | 6.01 | 27.3 | 27.7 | 26.7 | > 100 | 26.7 | 43.8 | 24.4 | 29 | 18.6 | 26.3 | 16.7 | 6.4 | 23.9 | 33.1 | 28.6 | 6.02 | 15.2
6 | COC(=O)[C@@]12C(=O)C(C)C(=O)[C@]1(C)C(C)=C[C@H]1[C@]3(C=O)CC[C@H](OC(C)=O)C(C)(C)[C@H]3CC[C@@]12C (stereo partly specified) | > 100 | 52.3 | > 100 | > 100 | > 100 | 63.8 | > 100 | > 100 | > 100 | > 100 | > 100 | > 100 | > 100 | > 100 | > 100 | > 100 | > 100 | > 100 | > 100
7 | NNCCc1n[nH]c(=O)n1N | > 100 | > 100 |  | > 100 | > 100 | > 100 | > 100 | > 100 | > 100 | > 100 | > 100 | > 100 | > 100 | > 100 | > 100 | > 100 | > 100 | > 100 | > 100
8 | O=C(NCCc1ccccc1)c1c(O)c2ccccc2[nH]c1=O | > 100 | > 100 |  | > 100 | > 100 | > 100 | > 100 | > 100 | > 100 | > 100 | > 100 | > 100 | > 100 | > 100 | > 100 | > 100 |  | > 100 | > 100
9 | O=C1/C(=C/c2ccccc2)CCC/C1=C\c1ccc(O)c(CN2CCCCC2)c1 | 7.5 | > 100 | 29.2 | 36.4 | 3.8 | > 100 | 17 | > 100 | 17.1 | 18.5 | 26.7 | 19.7 | 11 | 8.95 | 3.74 | 17.5 | 22.2 | 6.38 | 4.04
10 | O=C(CCCN1CCC2(CC1)CC(=O)N(N1CCCCCC1)C2=O)c1ccc(F)cc1 | > 100 | > 100 | > 100 | > 100 | > 100 | > 100 | > 100 | > 100 | > 100 | > 100 | 97.9 | > 100 | > 100 | > 100 | > 100 | > 100 | > 100 | > 100 | 33.8
11 | O=c1oc2c(ccc3ccccc32)cc1C1=CSC2=NCCN12 | > 100 | > 100 | > 100 | > 100 | > 100 | > 100 | > 100 | > 100 | > 100 | > 100 | > 100 | > 100 | > 100 | > 100 | > 100 | > 100 | > 100 | > 100 | > 100
12 | O=C1Nc2ccccc2/C1=C/c1c(Cl)[nH]c2ccc(O)cc12 | 0.947 | 5.31 | 12.7 | > 37.8 | 31.4 | 10.1 | > 43.7 | 17.1 | 12.4 | 22.6 | 9.02 | 28.2 | 14.5 | 2.16 | 17.5 | 22.5 | 30.4 | 12 | 12.1
